Laboratory results from US7022711B2, “2-(4-Pyridyl)amino-6-dialkoxyphenyl-pyrido[2,3-d]pyrimidin-7-ones” (Warner-Lambert Company, priority 2000, dated 2006).

How the values were obtained:
[1] = test system: Human umbilical vein endothelial cells (HUVECs); test: Serum stimulated HUVEC cell proliferation (Sulphorhodamine B); format: cell-based; conditions: for selectivity for serum-stimulated endothelial cell proliferation: HUVEC compared to A90 and C6 tumor cell proliferation
Experimental: (§1) Human umbilical vein endothelial cells (HUVECs) (Clonetics, Palo Alto, Calif.) were seeded at 2000 cells per well in growth medium containing 2% serum (EGM, Clonetics) and allowed to attach overnight (37° C., 5% CO2, 100% humidity). C6 rat glioma cells (ATCC) were seeded at 600 cells per well and incubated in F10 medium (GIBCO, Gaithersburg, Md.) supplemented with 15% horse serum, 2.5% fetal bovine serum, and 1 mM glutamine. A90 human ovarian cells (Dr. Kent Crickard, SUNY/AB Medical School) were seeded at 600 cells per well in RPMI1640 (GIBCO) plus 10% fetal bovine serum. Plates were incubated overnight (37° C., 5% CO2, 100% humidity) to allow the cells to attach. Test compound dilutions were added to the appropriate wells, and the incubation was continued for 4 additional days. Monolayers were fixed in 10% trichloroacetic acid (30 minutes at 4° C.), washed with distilled water, and stained with Sulphorhodamine B (0.075% in 1% acetic acid) (Sigma). Plates were washed in 1% acetic acid, and the bound dye was solubilized in 100 μL unbuffered Tris base. Absorbance was measured at 540 nm using a reference filter wavelength of 630 nm. Inhibitor potency (IC50) versus cellular proliferation was determined, and endothelial cell selectivity was assessed by comparing the inhibition of HUVEC proliferation to A90 and C6 tumor cell proliferation (Table 3).

FGFR-1 = molecular target: T1, FGFR-1 (Homo sapiens, UniProt P11362); test: Kinase inhibition assay (DELFIA), FGFr; format: biochemical; conditions: 40 μM ATP, kinase domain 20 nM
T1 construct: The kinase domains from FGFR-1, VEGFR-2, Lck, and PDGF were purified from baculoviral vectors expression systems; made in house
Experimental: (§2) The inhibition activity of the compounds in Examples 8, 9, 10, 11, and 12 and Reference Compounds A and B were evaluated using the Dissociated Enhanced Lanthanide Fluoroimmuno Assay (DELFIA) (Frank Loganzo and Carolyn Hardy. A sensitive, time-resolved fluorometric assay for the detection of inhibitors of phosphotyrosine kinases. American Biotechnology Laboratory, December 1998). DELFIA plates (EG&G Wallac, Gaithersburg, Md.) were coated overnight with Poly Glu Tyr (4:1) (Sigma, St. Louis, Mo.) at room temperature, washed (DELFIA wash reagent, EG&G Wallac), and spotted with 1 μL inhibitor dilution or DMSO carrier control per well. In some cases, kinase was autophosphorylated prior to analysis by incubating 45 minutes at 4° C. in the presence of 4 mM ATP and 25 mM MgCl2. A typical 100 μL kinase assay reaction contained 20 mM Tris (pH 7.5), 20 mM MgCl2, 50 mM NaCl, 5 mM DTT, and protease inhibitors (Mini EDTA-free protease inhibitor cocktail tablets, Boehringer Mannheim, Indianapolis, Ind.), 40 μM ATP, and an appropriate concentration of inhibitor. The reaction was allowed to continue for 30 minutes at room temperature. Plates were washed, blocked 30 minutes at room temperature (0.5% bovine serum albumin in DELFIA Assay Buffer, EG&G Wallac), and washed. One hundred microliter europium-conjugated antiphosphotyrosine antibody in DELFIA assay buffer was added to each well. Plates were incubated for 1 hour and decanted. One hundred microliter DELFIA enhancement solution (EG&G Wallac) was added and time-resolved fluorescence of the reactions determined using a VICTOR2 1420 multilable counter (EG&G Wallac). Compounds were tested from 10 through 0.0001 μM. c-Src was (Upstate Biotechnology, Lake Placid, N.Y.) was used at 3 units per reaction. The kinase domains from FGFR-1, VEGFR-2, Lck, and PDGF were purified from baculoviral vectors expression systems and were used in the assays at 20 nM.

VEGFR-2 = molecular target: T2, VEGFR-2 (Homo sapiens, UniProt P35968); test: Kinase inhibition assay (DELFIA), VEGF-2; format: biochemical; conditions: 40 μM ATP, kinase domain 20 nM
T2 construct: The kinase domains from FGFR-1, VEGFR-2, Lck, and PDGF were purified from baculoviral vectors expression systems; made in house
Experimental: as §2, with “DELFIA” for “The inhibition activity of the compounds in Examples 8, 9, 10, 11, and 12 and Reference Compounds A and B were evaluated using the Dissociated Enhanced Lanthanide Fluoroimmuno Assay (DELFIA) (Frank Loganzo and Carolyn Hardy. A sensitive, time-resolved fluorometric assay for the detection of inhibitors of phosphotyrosine kinases. American Biotechnology Laboratory, December 1998). DELFIA”, “One hundred microliter DELFIA enhancement solution (EG&G Wallac) was added and time-resolved fluorescence of the reactions determined using a VICTOR2 1420 multilable counter (EG&G Wallac).” left out

Lck = molecular target: T3, Lck (Homo sapiens, UniProt P06239); test: Kinase inhibition assay (DELFIA), Lck; format: biochemical; conditions: 40 μM ATP, kinase domain 20 nM
T3 construct: The kinase domains from FGFR-1, VEGFR-2, Lck, and PDGF were purified from baculoviral vectors expression systems; made in house
Experimental: as §2

c-Src = molecular target: T4, c-Src (Homo sapiens, UniProt P12931); test: Kinase inhibition assay (DELFIA), c-Src; format: biochemical; conditions: 40 μM ATP, c-Src 3 units per reaction
T4 construct: purchased Upstate Biotechnology, Lake Placid, N.Y
Experimental: as §2

A90 human ovarian cells = test: A90 tumor cell proliferation (Sulphorhodamine B); format: cell-based; conditions: Homo sapiens, 96 h; 4 days with compound
Experimental: as §1

C6 rat glioma cells = test: C6 tumor cell proliferation (Sulphorhodamine B); format: cell-based; conditions: Rattus norvegicus, Glioma cell, 96 h; 4 days with compound
Experimental: as §1

[2] = Metabolic stability, mice liver S9 fraction; format: in vitro ADME; conditions: mouse, liver S9 fraction; mice liver S9, 5 μM, 37° C., 1.0 mM NADPH; read-out: MS9 in vitro metabolic half-life
Experimental: (§3) Compounds were individually incubated (5 μM in DMSO) with human and mice liver S9 fractions in 50 mM KHPO4 buffer at 37° C. in the presence of 1.0 mM NADPH and additional cofactors. At 0, 10, 20, and 40 minutes, 100 μL aliquots were removed and added to 300 μL of acetonitrile. Standard curves were prepared in a similar manner with each compound. Samples were analyzed for parent concentration by LC-MS/MS. The in vitro metabolic half-life was determined from the concentration-time plots using WinNonlin. These in vitro data represent the rate of oxidative, hydrolytic, and conjugative metabolism.

[3] = Metabolic stability, human liver S9 fraction; format: in vitro ADME; conditions: liver S9 fraction; human liver S9, 5 μM, 37° C., 1.0 mM NADPH; read-out: HS9 in vitro metabolic half-life
Experimental: as §3

in vitro = conditions: human, Caco-2
Experimental: (§4) Cell transport studies were conducted with Caco-2 cells grown on Snapwells™ between 22 and 28 days postseeding. Typically, 10 mM MES buffer (pH 6.5) with 5 mM KCl, 135 mM NaCl, and 1.8 mM CaCl2 was used for the apical side and 10 mM MOPS (pH 7.4) with 5 M KCl, 132 mM NaCl, and 1.8 mM CaCl2 with 5 mM D-glucose was used for the basolateral side. On the day of the experiment, the growth media was aspirated, and the cell monolayers were pre-equilibrated with appropriate buffers at 37° C., and TEER measurements were performed to confirm the integrity of the monolayers. Transepithelial flux measurements were made by mounting the cell monolayers in a side-by-side diffusion chamber system (Precision Instrument Design, Tahoe City, Calif.). Temperature was maintained at 37° C. with a circulating water jacket. The solutions were mixed with gas-lift circulation with 95% oxygen/5% carbon dioxide. […] Donor and receiver samples were collected at selected time intervals for up to 3 hours. […] Test compounds were analyzed using LC-MS/MS methods. Apparent permeability coefficients were calculated using the following equation: Papp=(V·dC/dt)/(A·C0) where V=volume of the receiver solution in mL; A=surface area of the monolayer in cm^2; C0=initial donor concentration in mM; and dC/dt=change of the drug concentration in the receiver chamber over time.

[4] = Caco-2 cell transport (permeability) study; conditions: human
Experimental: as §4

T4 sequence (P12931 whole entry): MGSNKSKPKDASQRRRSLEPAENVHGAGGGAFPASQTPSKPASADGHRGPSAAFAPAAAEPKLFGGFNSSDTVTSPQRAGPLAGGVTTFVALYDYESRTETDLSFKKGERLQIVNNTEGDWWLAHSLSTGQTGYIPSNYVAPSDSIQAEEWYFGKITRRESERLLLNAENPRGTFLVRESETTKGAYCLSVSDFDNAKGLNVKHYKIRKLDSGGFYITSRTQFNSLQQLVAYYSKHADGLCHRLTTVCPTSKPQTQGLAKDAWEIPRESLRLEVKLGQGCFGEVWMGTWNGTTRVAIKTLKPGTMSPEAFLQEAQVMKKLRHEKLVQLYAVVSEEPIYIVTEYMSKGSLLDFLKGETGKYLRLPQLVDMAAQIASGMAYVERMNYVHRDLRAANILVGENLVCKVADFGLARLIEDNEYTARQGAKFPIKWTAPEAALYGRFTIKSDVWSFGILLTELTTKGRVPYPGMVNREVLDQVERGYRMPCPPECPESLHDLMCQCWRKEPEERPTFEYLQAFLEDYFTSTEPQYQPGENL
T2 sequence (P35968 834-1162 limits assumed, species assumed): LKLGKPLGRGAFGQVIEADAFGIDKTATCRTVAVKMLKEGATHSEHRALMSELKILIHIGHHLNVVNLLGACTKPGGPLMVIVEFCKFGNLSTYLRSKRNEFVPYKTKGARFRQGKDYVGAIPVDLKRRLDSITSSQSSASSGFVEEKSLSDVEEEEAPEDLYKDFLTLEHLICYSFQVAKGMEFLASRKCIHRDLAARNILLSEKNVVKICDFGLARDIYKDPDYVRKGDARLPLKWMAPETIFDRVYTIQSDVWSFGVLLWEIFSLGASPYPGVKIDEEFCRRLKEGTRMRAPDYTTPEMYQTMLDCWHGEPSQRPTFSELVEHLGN
T3 sequence (P06239 245-498 limits assumed, species assumed): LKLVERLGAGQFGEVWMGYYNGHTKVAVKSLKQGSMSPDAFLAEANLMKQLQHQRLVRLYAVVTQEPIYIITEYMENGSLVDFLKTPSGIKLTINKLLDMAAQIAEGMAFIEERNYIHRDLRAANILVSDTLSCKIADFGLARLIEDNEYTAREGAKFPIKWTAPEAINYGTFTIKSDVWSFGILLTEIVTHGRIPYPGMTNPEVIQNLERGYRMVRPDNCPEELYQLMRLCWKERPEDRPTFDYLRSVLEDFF
T1 sequence (P11362 478-767 limits assumed, species assumed): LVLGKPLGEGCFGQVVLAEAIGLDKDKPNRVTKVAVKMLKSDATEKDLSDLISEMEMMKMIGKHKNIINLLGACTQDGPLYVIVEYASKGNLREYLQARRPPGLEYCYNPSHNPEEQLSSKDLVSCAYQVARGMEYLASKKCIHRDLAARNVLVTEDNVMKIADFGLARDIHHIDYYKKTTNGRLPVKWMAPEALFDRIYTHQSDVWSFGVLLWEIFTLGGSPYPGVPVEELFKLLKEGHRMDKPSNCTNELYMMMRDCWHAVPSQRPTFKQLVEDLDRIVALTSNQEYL

melting point [°C] | IC50 (FGFR-1) [µM] | IC50 (VEGFR-2) [µM] | Ki (Lck) [µM] | IC50 (c-Src) [µM] | Structure (SMILES) | selectivity for serum-stimulated endothelial cell proliferation [1] | other results
> 300 |  |  |  |  | CCn1c(=O)c(-c2cc(OC)cc(OC)c2)cc2cnc(Nc3ccnc(C)c3)nc21 [Example 9, 6-(3,5-Dimethoxy-phenyl)-8-ethyl-2-(2-methyl-pyridin-4-ylamino)-8H-pyrido[2,3-d]pyrimidin-7-one] | selective inhibitors | 
 | 0.0008 | 0.001 | 0.74 | > 4 | CCn1c(=O)c(-c2cc(OC)cc(OC)c2)cc2cnc(Nc3cc(C)nc(C)c3)nc21 [Example 10, 6-(3,5-Dimethoxy-phenyl)-2-(2,6-dimethyl-pyridin-4-ylamino)-8-ethyl-8H-pyrido[2,3-d]pyrimidin-7-one] | selective inhibitors | 
 | 0.0002 | 0.003 | 2.77 | > 4 | CCn1c(=O)c(-c2cc(OC)cc(OC)c2)cc2cnc(Nc3ccnc(Cl)c3)nc21 [Example 11, 6-(3,5-Dimethoxy-phenyl)-2-(2-chloro-pyridin-4-ylamino)-8-ethyl-8H-pyrido[2,3-d]pyrimidin-7-one] | selective inhibitors | IC50 ([1]; Homo sapiens, HUVEC, 96 h, 2% serum growth medium, 4 days with compound): 0.013 µM; IC50 (A90 human ovarian cells): 25 µM; IC50 (C6 rat glioma cells): 9.68 µM
 |  |  |  |  | CCn1c(=O)c(-c2cc(OC)cc(OC)c2)cc2cnc(Nc3cc(OC)nc(OC)c3)nc21 [Example 12, 6-(3,5-Dimethoxy-phenyl)-2-(2,6-dimethoxy-pyridin-4-ylamino)-8-ethyl-8H-pyrido[2,3-d]pyrimidin-7-one] | selective inhibitors | 
295.5 to 297 |  |  |  |  | CCn1c(=O)c(-c2c(Cl)c(OC)cc(OC)c2Cl)cc2cnc(Nc3ccncc3)nc21 [Example 15, 6-(2,6-Dichloro-3,5-dimethoxy-phenyl)-2-(pyridin-4-ylamino)-8-ethyl-8H-pyrido[2,3-d]pyrimidin-7-one] |  | 
283 to 285 |  |  |  |  | COc1cc(OC)cc(-c2cc3cnc(Nc4ccncc4)nc3n(C3CCCC3)c2=O)c1 [Example 16, 6-(3,5-Dimethoxy-phenyl)-2-(pyridin-4-ylamino)-8-cyclopentyl-8H-pyrido[2,3-d]pyrimidin-7-one] |  | 
245 to 247 |  |  |  |  | COc1cc(OC)cc(-c2cc3cnc(Nc4ccncc4)nc3n(C)c2=O)c1 [Example 17, 6-(3,5-Dimethoxy-phenyl)-2-(pyridin-4-ylamino)-8-methyl-8H-pyrido[2,3-d]pyrimidin-7-one] |  | 
 |  |  |  |  | CCN(CC)CCOc1ccc(Nc2ncc3cc(-c4c(Cl)cccc4Cl)c(=O)n(C)c3n2)cc1 [Reference A] |  | half-life at 5 μM [2]: 14 min; half-life at 5 μM [3]: 46 min; Papp A→B (in vitro): 372 nm/s
 | 0.002 | 0.004 | 0.06 | 1.34 | CCN(CC)CCOc1ccc(Nc2ncc3cc(-c4cc(OC)cc(OC)c4)c(=O)n(C)c3n2)cc1 [Reference B, reference compound] |  | half-life at 5 μM [2]: 10 min; half-life at 5 μM [3]: 22 min; Papp A→B [4]: 201 nm/s
 |  |  |  |  | COCCc1ccc(OCC(O)CNC(C)C)cc1 (stereo not drawn) [metoprolol] |  | Papp A→B [4]: ~300 nm/s
